These results are taken from patent US6632616B2, “Compounds that selectively bind to expanded polyglutamine repeat domains and methods of use thereof” (Duke University, priority 2000, dated 2003).

Entries after “also recorded” stand apart in the source; their conditions may differ. No end group written: not given here.

The subject of one series is Qn-YFP. Nature of the series: Polyglutamine-YFP (Qn-YFP) aggregate formation in co-transfected COS-7 cells, all lengths. The series is classed as cell-based. The following applies: co-expression, 48 hours after transfection, FIG. 4. As to the method:
COS-7 cells examined 48 hours after transfection using a Zeiss fluorescence microscope with the CFP/YFP filter set from Omega Optical Inc. The percentage of cells with aggregates was calculated by counting the number of transfected cells containing aggregate and dividing by the total number of transfected cells multiplied times 100. In each experiment at least 200 transfected cells were counted. Experiments were repeated at least four times. Error bars represent standard errors. *=p<0.05;**=p<0.01 (Student's t-test)
(§1) The CAG repeat of the Qn-GFP vector (Onodera, O. et al. (1996) FEBS Letters 399, 135-139) were inserted into the XhoI and EcoRI sites of the pEYFP-N1 vector (Clontech, Palo Alto, Calif.) to construct the Qn-YFP vectors. The polyglutamine-binding peptide and control constructs were prepared by ligating synthetic oligonucleotides into the XhoI and BamHI sites of the pECFP-N1 vector (Clontech) to obtain glutamine binding peptide 1-CFP (QBP1-CFP), scrambled QBP1-CFP (SCR-CFP), and a computer-generated random peptide-CFP (RAN)-CFP. The insert of QBP1-CFP was duplicated by PCR to obtain a tandem repeat of QBP1-CFP ((QBP1)2-CFP). The sequence of all constructs was confirmed by DNA sequencing. […]
(§2) COS-7 cells were grown and maintained in Dulbecco's modified Eagles' medium (DMEM) supplemented with 10% fetal calf serum (FCS). […] Cells were examined 48 hours after transfection using a Zeiss fluorescence microscope equipped with YFP/CFP filter sets (Omega Optical Inc., Brattleboro, Vt.). The percentage of cells with aggregates was calculated by dividing the number of cells with aggregates by the total number of fluorescent cells, multiplied by 100. […] Cells were incubated with 5 μM ethidium homodimer for 30 minutes (37° C.) and then examined under a fluorescence microscope equipped with a rhodamine filter set. Cells with nuclear fluorescence were counted as dead. In each experiment at least 200 transfected cells were counted. […]

A further series deals with thio-Q62. Kind of series: Thioredoxin-polyglutamine turbidity (aggregation) assay, thio-Q62. The series is classed as biochemical. The following applies: for inhibition of thio-Q62 aggregation (in words): turbidity at 405 nm, FIG. 2; for inhibition of polyglutamine-thioredoxin aggregation (FIG. 6 and 7): peptides at 1 and 10 microMolar. The procedure:
(§3) Turbidity assays were performed in 200 μl reactions consisting of thioredoxin-polyglutamine in PBS in 96-well, low protein binding plates. Plates were incubated at 4° C. and turbidity measured at 405 nm on a Thermo Max plate reader (Molecular Devices).
(§4) Peptides were synthesized at the Howard Hughes Medical Institute peptide sequencing facility at Duke University with an acetylated amino terminus and protection of tryptophan with BOC during synthesis. Identical results were obtained with peptides obtained from Bio-Synthesis Inc. (Lewisville, Tex.). Stock solutions of peptides were prepared fresh daily by dissolving in dimethyl sulfoxide at 2.5 mM and incubated with thioredoxin-polyglutamine protein at 0.25-25 μM.
(§5) To monitor thioredoxin-polyglutamine protein aggregation a turbidometric assay was developed, similar to the assays commonly used to study microtubule assembly and β-amyloid aggregation (Jarrett, J. T. et al. (1993) Biochem 32, 4693-4697; Sloboda, R. D. et al. (1976) Biochem 15, 4497-4505). Solutions of thio-Q62 and 81 protein increased turbidity in a polyglutamine length-, time- and concentration-dependent manner (FIG. 1B and C; Time dependence of aggregation of thioredoxin-polyglutamine with 81 glutamines not shown). […] The pelleted and retained material was confirmed as thioredoxin-polyglutamine fusion protein containing 62 or 81 glutamines on western blots probed with anti-thioredoxin or anti-polyglutamine antibody (not shown). In contrast, thioredoxin-polyglutamine protein containing 19 or 35 glutamines (thio-Q19 or 35) was not pelleted by centrifugation and was not trapped by a 0.22 μm filter.

In another series the test system is thio-Q19 or 35. Kind of series: Thioredoxin-polyglutamine turbidity assay, nonpathologic thio-Q19 or 35. It is filed as biochemical. As to the method: as §3, §4, §5
In another series the test system is Q19-YFP. Nature of the series: Intracellular distribution of Q19-YFP in co-transfected COS-7 cells. The series is classed as cell-based. The procedure:
as §1
as §2, with “dead.” for “dead. In each experiment at least 200 transfected cells were counted.”

For series [1], the system named is Q81-YFP. Nature of the series: Co-localization with Q81-YFP aggregates in co-transfected COS-7 cells. The series is classed as cell-based. The following applies: co-expression, 48 hours after transfection. As to the method:
The CAG repeat of the Qn-GFP vector (Onodera, O. et al. (1996) FEBS Letters 399, 135-139) were inserted into the XhoI and EcoRI sites of the pEYFP-N1 vector (Clontech, Palo Alto, Calif.) to construct the Qn-YFP vectors. The polyglutamine-binding peptide and control constructs were prepared by ligating synthetic oligonucleotides into the XhoI and BamHI sites of the pECFP-N1 vector (Clontech) to obtain glutamine binding peptide 1-CFP (QBP1-CFP), scrambled QBP1-CFP (SCR-CFP), and a computer-generated random peptide-CFP (RAN)-CFP. The insert of QBP1-CFP was duplicated by PCR to obtain a tandem repeat of QBP1-CFP ((QBP1)2-CFP). The sequence of all constructs was confirmed by DNA sequencing. The first methionine of YFP or CFP was changed to isoleucine by PCR site-directed mutagenesis to eliminate translation of the fluorescent protein without the polyglutamine domain. The sizes of the fluorescent fusion proteins were confirmed by western blotting.
COS-7 cells were grown and maintained in Dulbecco's modified Eagles' medium (DMEM) supplemented with 10% fetal calf serum (FCS). Cells were transfected with Effectene according to manufacturer's instructions (Qiagen GmbH, Hilden, Germany). Cells were examined 48 hours after transfection using a Zeiss fluorescence microscope equipped with YFP/CFP filter sets (Omega Optical Inc., Brattleboro, Vt.). The percentage of cells with aggregates was calculated by dividing the number of cells with aggregates by the total number of fluorescent cells, multiplied by 100. Cell viability was examined 48 hours after transfection using ehtidium homodimer (Molecular Probes, Eugene, Oreg.). Cells were incubated with 5 μM ethidium homodimer for 30 minutes (37° C.) and then examined under a fluorescence microscope equipped with a rhodamine filter set. Cells with nuclear fluorescence were counted as dead. In each experiment at least 200 transfected cells were counted. Cells expressing random peptide-CFP (RAN-CFP) and polyglutamine-YFP (Qn-YFP) were used as a control to calculate the relative difference in aggregate formation and cell death. […]

A further series has as its system Q45-YFP. Nature of the series: Q45-YFP aggregate formation in co-transfected COS-7 cells. The series is classed as cell-based. The following applies: COS-7, 48 hours. The procedure: (§6) COS-7 cells examined 48 hours after transfection using a Zeiss fluorescence microscope with the CFP/YFP filter set from Omega Optical Inc. The percentage of cells with aggregates was calculated by counting the number of transfected cells containing aggregate and dividing by the total number of transfected cells multiplied times 100. In each experiment at least 200 transfected cells were counted. Experiments were repeated at least four times. Error bars represent standard errors. *=p<0.05;**=p<0.01 (Student's t-test) […]
as §2

The test system of a further series is Q57-YFP. Nature of the series: Q57-YFP aggregate formation in co-transfected COS-7 cells. It is filed as cell-based. The following applies: COS-7, 48 hours. The procedure: as §6, §2
Q57-YFP, sequence (as listed by the source): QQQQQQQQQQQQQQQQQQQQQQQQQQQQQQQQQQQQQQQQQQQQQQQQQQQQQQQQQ
Series [2] deals with Q81-YFP. Kind of series: Q81-YFP aggregate formation in co-transfected COS-7 cells. The following applies: COS-7, 48 hours. It is filed as cell-based. The procedure: as §6, §2
Q81-YFP, sequence (as listed by the source): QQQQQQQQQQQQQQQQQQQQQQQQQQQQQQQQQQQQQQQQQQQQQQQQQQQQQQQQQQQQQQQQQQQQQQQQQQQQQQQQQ
Series [3] relates to Q57-YFP induced cell death. Kind of series: Q57-YFP induced cell death in co-transfected COS-7 cells (ethidium homodimer). It is filed as cell-based. The following applies: peptides fused to CFP, co-expressed; for inhibition of Q57-YFP induced cell death: COS-7, 48 hours, ethidium homodimer. As to the method: FIG. 5. […] Open bar=cells co-transfected with Q57-YFP and RAN-CFP. Hatched bar=cells co-transfected with Q57-YFP and SCR-CFP. Filled bar=cells co-transfected with Q57-YFP and QBP1-CFP. Dotted bar=cells co-transfected with Q57-YFP and (QBPI)2-CFP. COS-7 cells examined 48 hours after transfection using a Zeiss fluorescence microscope with rhodamine filter set. The percentage of dead cells was calculated by counting the number of transfected cells stained with ethidium homodimer and dividing by the total number of transfected cells multiplied times 100. In each experiment at least 200 transfected cells were counted. Experiments were repeated at least three times. Error bars represent standard errors. *=p<0.05; **=p<0.01 (Student's t-test).
COS-7 cells were grown and maintained in Dulbecco's modified Eagles' medium (DMEM) supplemented with 10% fetal calf serum (FCS). Cells were transfected with Effectene according to manufacturer's instructions (Qiagen GmbH, Hilden, Germany). Cells were examined 48 hours after transfection using a Zeiss fluorescence microscope equipped with YFP/CFP filter sets (Omega Optical Inc., Brattleboro, Vt.). The percentage of cells with aggregates was calculated by dividing the number of cells with aggregates by the total number of fluorescent cells, multiplied by 100. Cell viability was examined 48 hours after transfection using ehtidium homodimer (Molecular Probes, Eugene, Oreg.). Cells were incubated with 5 μM ethidium homodimer for 30 minutes (37° C.) and then examined under a fluorescence microscope equipped with a rhodamine filter set. Cells with nuclear fluorescence were counted as dead. In each experiment at least 200 transfected cells were counted. Cells expressing random peptide-CFP (RAN-CFP) and polyglutamine-YFP (Qn-YFP) were used as a control to calculate the relative difference in aggregate formation and cell death. Experiments were repeated at least four times.
The relationship between polyglutamine protein aggregation and cell death is controversial. To determine whether QBP1 or tandem-QBP1 inhibit polyglutamine-induced cell death, cell membrane permeability to ethidium homodimer was assayed. The membranes of living cells are impermeable to ethidium homodimer and permeability to ethidium homodimer is a well-established measure of cell death. Ethidium homodimer undergoes a 30-fold increase in fluorescence upon binding to nucleic acid allowing easy detection with a fluorescence microscope using a rhodamine filter. QBP1 and tandem QBP1 ((QBP1)2) fused to CFP inhibit Q57-YFP induced cell death (FIG. 5). […] Similar results have also been observed with Q45- and Q81-YFP (not shown).

The mark [4] stands for this setting: compared to cells co-expressing RAN-CFP.

thio-Q62, sequence (as listed by the source): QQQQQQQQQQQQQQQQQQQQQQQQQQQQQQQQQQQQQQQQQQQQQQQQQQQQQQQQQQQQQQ
Q45-YFP, sequence (as listed by the source): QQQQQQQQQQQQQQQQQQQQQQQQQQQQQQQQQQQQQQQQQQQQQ

For “(QBP1)2-CFP: tandem repeat of QBP1 fused to cyan fluorescent protein (SNWKWWPGIFDSNWKWWPGIFD; also: fused to cyan fluorescent protein)”, the “effect on percentage of cells with polyglutamine aggregates” value (“effect on percentage of cells” below) with Qn-YFP is “more effective”.
Consider “LSLMEFGCRGA [RAN, computer-generated random 11 amino acid peptide, reference compound]”, for which the “inhibition of thio-Q62 aggregation (in words)” value in the series on thio-Q62 is on record as “did not inhibit aggregation”. Further, in the series on thio-Q19 or 35, the “effect on turbidity of nonpathologic thio-Q19 or 35” value is “no effect”.
For the substance “QBP1-CFP: QBP1 fused to cyan fluorescent protein, expressed in COS-7 cells (SNWKWWPGIFD; also: fused to cyan fluorescent protein)”, the “effect on percentage of cells” value in the series on Qn-YFP is recorded as “reduced the percentage of cells with polyglutamine aggregates”. For the same substance, the “effect of co-expression on Q19-YFP distribution” value in the series on Q19-YFP was “unaffected”. In the series on Q81-YFP [1], the “co-localization with Q81-YFP aggregates” value is reported as “co-localization”. The “reduction of Q45-YFP aggregation” value with Q45-YFP (setting [4]) is on record as 39%.
For “RAN-CFP: computer-generated random peptide fused to cyan fluorescent protein (LSLMEFGCRGA; also: fused to cyan fluorescent protein)”, in the series with Q81-YFP [1], the “co-localization with Q81-YFP aggregates” value is “did not co-localize”.
With “SCR-CFP: scrambled QBP1 fused to cyan fluorescent protein (WPIWSKGNDWF; also: fused to cyan fluorescent protein) [reference compound]”, the “effect on Q57-YFP aggregation (in words)” value with Q57-YFP is on record as “did not alter aggregation”. Further, the “co-localization with Q81-YFP aggregates” value in the series on Q81-YFP [1] was “did not co-localize”. Further, the “effect on Q81-YFP aggregation (in words)” value in the series with Q81-YFP [2] is listed as “did not alter aggregation”. Moreover, the “effect on Q45-YFP aggregation (in words)” value in the series with Q45-YFP was “did not alter aggregation”.
As to SNWKWWPGIFD [QBP1], the “inhibition of Q57-YFP induced cell death” value in series [3] is given as “inhibit; also recorded: inhibits polyglutamine-mediated cell death”. Moreover, the “reversal of thio-Q62 aggregation” value in the series with thio-Q62 (peptide added after aggregation) is reported as “did not reverse aggregation”. Besides, the “inhibition of thio-Q62 aggregation (in words)” value in the series on thio-Q62 was “potently inhibited”; in the series on thio-Q62 (listed as QBP 1), “inhibits thio-Q62 aggregation in a concentration-dependent pattern”. Also, the “effect on percentage of cells” value in the series with Qn-YFP is given as “decreases the number of cells containing polyglutamine aggregates”. Moreover, in the series with Q57-YFP (setting [4]), the “reduction of Q57-YFP aggregation” value was 26%. Also, the “effect on turbidity of nonpathologic thio-Q19 or 35” value with thio-Q19 or 35 was “no effect”. The “effect on Q81-YFP aggregation (in words)” value with Q81-YFP [2] is “did not reach statistical significance”.
As for “SNWKWWPGIFDSNWKWWPGIFD [(QBP1)2, tandem repeat of QBP1]”, in series [3], the “inhibition of cell death compared with monomer QBP1” value is on record as “more effective” and the “inhibition of Q57-YFP induced cell death” value is on record as “inhibit”.
As for WDWWPGIFD, the “Ability to Inhibit Aggregation” value in the series on thio-Q62 (5 μm peptide and 15 μM thio-polyglutamine, 62 glutamines, 10 days) was “++ (++ = 50% inhibition)”.
For the substance WKWW, in the series on thio-Q62, the “inhibition of polyglutamine-thioredoxin aggregation (FIG. 6 and 7)” value is “does not exhibit substantial inhibition of aggregation”.
Same read-out and setting: under “WKWWFD [QBP1-M6FD, QBP1-M7FD with the proline removed]” stands “significant loss of activity”; under WKWWPFD, “some activity at high concentration”.
